Measurements as given in publication PMC5994920 (European journal of medicinal chemistry, 2017).

Legend:
[1] = tested on: HCT116 human tumor xenografts; experiment: In vivo antitumor assay, HCT116 xenograft model; details: oral, 11a 100 mg/kg, SAHA 100 mg/kg, MS275 50 mg/kg
[2] = tested on: U937 human tumor xenografts; experiment: In vivo antitumor assay, U937 xenograft model; details: for Body weight loss compared with the control group (toxicity): oral, MS275 50 mg/kg/day, 11a 100 mg/kg/day
[3] = tested on: acetylated histone H3, acetylated histone H4, procaspase-3, cleaved caspase-3 and cleaved PARP; experiment: Western blot analysis in HL60 cells; format: cell-based, human; details: 48 h treatment
[4] = Intracellular fluid concentration; format: in vitro ADME; details: preliminary results, data not shown
[5] = Lip-water partition coefficient; format: physicochemical; details: compound concentration in n-octyl alcohol 5 mM

Intracellular fluid concentration, times lower than 11a [4] | Detection in water phase in LogP test (water solubility) [5] | SMILES | Body weight loss compared with the control group [1] | Body weight loss ([2]; first experiment, 100 mg/kg/day oral, three days later) | Body weight loss compared with the control group (toxicity) [2] | Levels of procaspase-3, cleaved caspase-3 and cleaved PARP (western blot) [3] | Level of acetylated histone H3 and acetylated histone H4 (western blot) [3]
 |  | Nc1ccccc1NC(=O)c1ccc(CNC(=O)OCc2cccnc2)cc1 [MS275] | serious body weight loss was observed | serious body weight loss | obvious body weight loss | dramatically reduced the level of procaspase-3 and increased the level of cleaved caspased-3 and cleaved PARP | 
more than 10 times | could hardly detect 56c in water phase | COc1ccc(C(=O)N[C@@H](Cc2c[nH]c3ccccc23)C(=O)NCc2ccc(C(=O)Nc3cc(-c4ccccc4)ccc3N)cc2)cc1 [Compound 56c, (S)-4-((3-(1H-indol-3-yl)-2-(4-methoxybenzamido)propanamido)methyl)-N-(4-amino-[1,1’-biphenyl]-3-yl)benzamide] |  |  |  | could be hardly affected | much less effects
 |  | COc1ccc(C(=O)N[C@@H](Cc2c[nH]c3ccccc23)C(=O)NCc2ccc(C(=O)Nc3ccccc3N)cc2)cc1 [Compound 11a, (S)-4-((3-(1H-indol-3-yl)-2-(4-methoxybenzamido)propanamido)methyl)-N-(2-aminophenyl)benzamide] |  |  | This toxicity didn’t appear | dramatically reduced the level of procaspase-3 and increased the level of cleaved caspased-3 and cleaved PARP | markedly increase
